Measured values from ChEMBL document CHEMBL2429833, “A new class of bactericidal agents against S. aureus, MRSA and VRE derived from bisindolylmethane” (Med Chem Res, 2013).
In brackets after ≈: the same amount, converted by molar mass. Activity calls are given as the source filed them. The calls are words filed in the database; no cut-off is given here.

What was measured:
Pseudomonas aeruginosa = test: Antibacterial activity against Pseudomonas aeruginosa ATCC 27853 after 24 hrs by microdilution method; format: functional, organism-based
Escherichia coli = test: Antibacterial activity against Escherichia coli ATCC 25922 after 24 hrs by microdilution method; format: functional, organism-based
Enterococcus faecalis [1] = test: Bactericidal activity against vancomycin-resistant Enterococcus faecalis after 24 hrs; format: functional
Staphylococcus aureus [2] = test: Bactericidal activity against methicillin-resistant Staphylococcus aureus after 24 hrs; format: functional
Staphylococcus aureus [3] = test: Bactericidal activity against Staphylococcus aureus ATCC 29213 after 24 hrs; format: functional; conditions: ATCC 29213, 24 h
Enterococcus faecalis [4] = test: Antibacterial activity against vancomycin-resistant Enterococcus faecalis after 24 hrs by microdilution method; format: functional
Staphylococcus aureus [5] = test: Antibacterial activity against methicillin-resistant Staphylococcus aureus after 24 hrs by microdilution method; format: functional
Staphylococcus aureus [6] = test: Antibacterial activity against Staphylococcus aureus ATCC 29213 after 24 hrs by microdilution method; format: functional; conditions: ATCC 29213, 24 h
A549 = test: Cytotoxicity against human A549 cells after 48 hrs by MTT assay; format: functional, cell-based
HeLa = test: Cytotoxicity against human HeLa cells after 48 hrs by MTT assay; format: functional, cell-based
PC-3 = test: Cytotoxicity against human PC3 cells after 48 hrs by MTT assay; format: functional, cell-based

O=[N+]([O-])c1ccc(C(c2c[nH]c3ccc(Br)cc23)c2c[nH]c3ccc(Br)cc23)cc1
Activity (Pseudomonas aeruginosa): inactive
Activity (Escherichia coli): inactive
MBC (Enterococcus faecalis [1]): 8 µg/mL (≈ 15.2 µM)
MBC (Staphylococcus aureus [2]): 8 µg/mL (≈ 15.2 µM)
MBC (Staphylococcus aureus [3]): 4 µg/mL (≈ 7.62 µM)
MIC (Enterococcus faecalis [4]): 8 µg/mL (≈ 15.2 µM)
MIC (Staphylococcus aureus [5]): 8 µg/mL (≈ 15.2 µM)
MIC (Staphylococcus aureus [6]): 4 µg/mL (≈ 7.62 µM)

O=C(O)c1cn(C2CC2)c2cc(N3CCNCC3)c(F)cc2c1=O [CIPROFLOXACIN]
MBC (Enterococcus faecalis [1]): 64 µg/mL (≈ 193 µM)
MBC (Staphylococcus aureus [2]): 32 µg/mL (≈ 96.6 µM)
MBC (Staphylococcus aureus [3]): 0.5 µg/mL (≈ 1.51 µM)
MIC (Enterococcus faecalis [4]): 64 µg/mL (≈ 193 µM)
MIC (Staphylococcus aureus [6]): 0.25 µg/mL (≈ 0.754 µM)

COc1cccc(C(c2c[nH]c3ccc(Br)cc23)c2c[nH]c3ccc(Br)cc23)c1OC
Activity (Pseudomonas aeruginosa): inactive
Activity (Escherichia coli): inactive
MIC (Enterococcus faecalis [4]): > 256 µg/mL
MIC (Staphylococcus aureus [5]): 256 µg/mL (≈ 474 µM)
MIC (Staphylococcus aureus [6]): 256 µg/mL (≈ 474 µM)

CN(C)c1ccc(C(c2c[nH]c3ccc(Br)cc23)c2c[nH]c3ccc(Br)cc23)cc1
Activity (Pseudomonas aeruginosa): inactive
Activity (Escherichia coli): inactive
MIC (Enterococcus faecalis [4]): 256 µg/mL (≈ 489 µM)
MIC (Staphylococcus aureus [5]): 128 µg/mL (≈ 245 µM)
MIC (Staphylococcus aureus [6]): 64 µg/mL (≈ 122 µM)

O=S(=O)(c1ccc(F)cc1)n1cc(C(c2ccc(F)cc2)c2cn(S(=O)(=O)c3ccc(F)cc3)c3ccc(Br)cc23)c2cc(Br)ccc21
MIC (Enterococcus faecalis [4]): > 128 µg/mL
MIC (Staphylococcus aureus [5]): > 128 µg/mL
MIC (Staphylococcus aureus [6]): > 128 µg/mL
IC50 (A549): > 100 µM
IC50 (HeLa): > 100 µM
IC50 (PC-3): > 100 µM

CC1(C)CC(c2c[nH]c3ccc(Br)cc23)(c2c[nH]c3ccc(Br)cc23)c2ccc(O)cc2O1
Activity (Pseudomonas aeruginosa): inactive
Activity (Escherichia coli): inactive
MBC (Enterococcus faecalis [1]): 4 µg/mL (≈ 7.06 µM)
MBC (Staphylococcus aureus [2]): 2 µg/mL (≈ 3.53 µM)
MBC (Staphylococcus aureus [3]): 2 µg/mL (≈ 3.53 µM)
MIC (Enterococcus faecalis [4]): 4 µg/mL (≈ 7.06 µM)
MIC (Staphylococcus aureus [5]): 2 µg/mL (≈ 3.53 µM)
MIC (Staphylococcus aureus [6]): 2 µg/mL (≈ 3.53 µM)

COc1ccc(S(=O)(=O)n2cc(C(c3ccc(F)cc3)c3cn(S(=O)(=O)c4ccc(OC)cc4)c4ccc(Br)cc34)c3cc(Br)ccc32)cc1
MIC (Enterococcus faecalis [4]): > 128 µg/mL
MIC (Staphylococcus aureus [5]): > 128 µg/mL
MIC (Staphylococcus aureus [6]): > 128 µg/mL
IC50 (A549): > 100 µM
IC50 (HeLa): > 100 µM
IC50 (PC-3): > 100 µM

O=[N+]([O-])c1ccc2[nH]cc(C(c3ccc(O)cc3)c3c[nH]c4ccc([N+](=O)[O-])cc34)c2c1
Activity (Pseudomonas aeruginosa): inactive
Activity (Escherichia coli): inactive
MBC (Enterococcus faecalis [1]): 2 µg/mL (≈ 4.67 µM)
MBC (Staphylococcus aureus [2]): 1 µg/mL (≈ 2.33 µM)
MBC (Staphylococcus aureus [3]): 1 µg/mL (≈ 2.33 µM)
MIC (Enterococcus faecalis [4]): 2 µg/mL (≈ 4.67 µM)
MIC (Staphylococcus aureus [5]): 1 µg/mL (≈ 2.33 µM)
MIC (Staphylococcus aureus [6]): 1 µg/mL (≈ 2.33 µM)

Fc1ccc(C(c2cn(Cc3ccc(Cl)cc3)c3ccc(Br)cc23)c2cn(Cc3ccc(Cl)cc3)c3ccc(Br)cc23)cc1
MIC (Enterococcus faecalis [4]): > 128 µg/mL
MIC (Staphylococcus aureus [5]): > 128 µg/mL
MIC (Staphylococcus aureus [6]): > 128 µg/mL
IC50 (A549): 22.8 µM
IC50 (HeLa): 18.5 µM
IC50 (PC-3): 38.5 µM

Brc1ccc2[nH]cc(C(c3c[nH]c4ccc(Br)cc34)C3CCCCC3)c2c1
Activity (Pseudomonas aeruginosa): inactive
Activity (Escherichia coli): inactive
MBC (Enterococcus faecalis [1]): 32 µg/mL (≈ 65.8 µM)
MBC (Staphylococcus aureus [2]): 32 µg/mL (≈ 65.8 µM)
MBC (Staphylococcus aureus [3]): 32 µg/mL (≈ 65.8 µM)
MIC (Enterococcus faecalis [4]): 32 µg/mL (≈ 65.8 µM)
MIC (Staphylococcus aureus [5]): 32 µg/mL (≈ 65.8 µM)
MIC (Staphylococcus aureus [6]): 16 µg/mL (≈ 32.9 µM)

COc1ccc(OC)c(C(c2c[nH]c3ccc(Br)cc23)c2c[nH]c3ccc(Br)cc23)c1
Activity (Pseudomonas aeruginosa): inactive
Activity (Escherichia coli): inactive
MIC (Enterococcus faecalis [4]): > 256 µg/mL
MIC (Staphylococcus aureus [5]): 256 µg/mL (≈ 474 µM)
MIC (Staphylococcus aureus [6]): 128 µg/mL (≈ 237 µM)

CCCCCCCC(c1c[nH]c2ccc(Br)cc12)c1c[nH]c2ccc(Br)cc12
Activity (Pseudomonas aeruginosa): inactive
Activity (Escherichia coli): inactive
MIC (Enterococcus faecalis [4]): > 256 µg/mL
MIC (Staphylococcus aureus [5]): > 256 µg/mL
MIC (Staphylococcus aureus [6]): > 256 µg/mL

O=[N+]([O-])c1ccc2[nH]cc(C(c3ccc(F)cc3)c3c[nH]c4ccc([N+](=O)[O-])cc34)c2c1
Activity (Pseudomonas aeruginosa): inactive
Activity (Escherichia coli): inactive
MIC (Enterococcus faecalis [4]): > 256 µg/mL
MIC (Staphylococcus aureus [5]): > 256 µg/mL
MIC (Staphylococcus aureus [6]): > 256 µg/mL

Brc1ccc2[nH]cc(C(c3ccc4ccccc4c3)c3c[nH]c4ccc(Br)cc34)c2c1
Activity (Pseudomonas aeruginosa): inactive
Activity (Escherichia coli): inactive
MBC (Enterococcus faecalis [1]): 32 µg/mL (≈ 60.3 µM)
MBC (Staphylococcus aureus [2]): 32 µg/mL (≈ 60.3 µM)
MBC (Staphylococcus aureus [3]): 16 µg/mL (≈ 30.2 µM)
MIC (Enterococcus faecalis [4]): 32 µg/mL (≈ 60.3 µM)
MIC (Staphylococcus aureus [5]): 32 µg/mL (≈ 60.3 µM)
MIC (Staphylococcus aureus [6]): 16 µg/mL (≈ 30.2 µM)

N#Cc1ccc2[nH]cc(C(c3ccc(O)cc3)c3c[nH]c4ccc(C#N)cc34)c2c1
Activity (Pseudomonas aeruginosa): inactive
Activity (Escherichia coli): inactive
MIC (Enterococcus faecalis [4]): > 256 µg/mL
MIC (Staphylococcus aureus [5]): > 256 µg/mL
MIC (Staphylococcus aureus [6]): > 256 µg/mL

CC(C)(c1c[nH]c2ccc(Br)cc12)c1c[nH]c2ccc(Br)cc12
Activity (Pseudomonas aeruginosa): inactive
Activity (Escherichia coli): inactive
MIC (Enterococcus faecalis [4]): > 256 µg/mL
MIC (Staphylococcus aureus [5]): > 256 µg/mL
MIC (Staphylococcus aureus [6]): > 256 µg/mL

Brc1ccc(C(c2c[nH]c3ccc(Br)cc23)c2c[nH]c3ccc(Br)cc23)cc1
Activity (Pseudomonas aeruginosa): inactive
Activity (Escherichia coli): inactive
MBC (Enterococcus faecalis [1]): 64 µg/mL (≈ 114 µM)
MBC (Staphylococcus aureus [2]): 64 µg/mL (≈ 114 µM)
MBC (Staphylococcus aureus [3]): 16 µg/mL (≈ 28.6 µM)
MIC (Enterococcus faecalis [4]): 64 µg/mL (≈ 114 µM)
MIC (Staphylococcus aureus [5]): 32 µg/mL (≈ 57.2 µM)
MIC (Staphylococcus aureus [6]): 8 µg/mL (≈ 14.3 µM)

COc1ccc(C(c2c[nH]c3ccc(Br)cc23)c2c[nH]c3ccc(Br)cc23)cc1OC
Activity (Pseudomonas aeruginosa): inactive
Activity (Escherichia coli): inactive
MIC (Enterococcus faecalis [4]): 256 µg/mL (≈ 474 µM)
MIC (Staphylococcus aureus [5]): 256 µg/mL (≈ 474 µM)
MIC (Staphylococcus aureus [6]): 128 µg/mL (≈ 237 µM)
